Laboratory results as given in publication PMC3514216, “SRC Homology 2 Domain Binding Sites in Insulin, IGF-1 and FGF receptor mediated signaling networks reveal an extensive potential interactome” (Cell Communication and Signaling : CCS, 2012).

Test system: panel of 50 SH2 domains
Assay: SPOT peptide array probed with each of 50 GST-SH2 domains
Type: binding
Settings: for SH2 Domains >3X / 2X < SH2 Domains < 3X: SPOT192 peptide array; for SH2 Domains >3X: list of GST-SH2 domains with spot intensity >3X array mean (array-positive); for 2X < SH2 Domains < 3X: list of GST-SH2 domains with spot intensity between 2X and 3X array mean (indeterminate range)
From the text: The use of addressable peptide arrays is a reproducible and semi-quantitative approach that has been extensively validated for studying protein interactions with peptide ligands. To investigate connections between SH2 domain proteins and their putative phosphorylated docking sites on cell surface receptors, we developed addressable arrays consisting of 192 phosphotyrosine peptides. This peptide set was assembled using 71 phosphotyrosine peptide motifs corresponding to all of the cytoplasmic tyrosine residues within the FGF receptors (FGFR1-4), insulin receptor (InsR) and IGF-1 receptor (IGF-1R) (Figure 1A). Activation of these receptors results in the phosphorylation of associated scaffold proteins, and so 75 phosphotyrosine peptides corresponding to a comprehensive list of tyrosine residues within insulin receptor substrates (IRS-1 and IRS-2) and fibroblast receptor substrates (FRS-2 and FRS-3) were included. In addition, 33 phosphotyrosine peptides were incorporated from the downstream signaling proteins PLC-γ1, p130Cas (BCAR1) and p62DOK1. […] These control peptides provide a reference and establish the empirical cut-off for designated binding interactions (Table 1). No discrimination was made against peptides on the basis of reported phosphorylation state in order to examine a diverse and unbiased set of motifs. The resulting set of 192 phosphotyrosine peptides and their corresponding position in the proteins of origin is noted in Additional file 1: Table S1. Addressable arrays were synthesized as membrane-bound 11-mer peptides using the SPOT synthesis technique. While the majority of SH2 domains recognize residues C-terminal to the phosphotyrosine in their cognate peptide ligands, additional contacts between SH2 domains and residues N-terminal to the phosphotyrosine are observed for the SH2 domain of Sh2d1a (SAP) and cannot be ruled out in other cases. Peptides were synthesized with six flanking residues C-terminal to the phosphotyrosine and four residues N-terminal to the phosphotyrosine.
To assess the potential network of SH2 domain interactions we selected 50 SH2 domains representing 28 of the 38 families of SH2 domains (Figure 1B) all of which we have previously shown can be expressed and purified. These include a number of extensively studied SH2 domains (Src, Grb2, PLCγ), as well as a number of less studied SH2 domains from proteins such as Shd, She, Shf, Slnk (Sh2d6), Sh2d1a (SAP), Sh2d1b (Eat-2), and Brdg1. To address potential variability in specificity within families we employed all members from the SHB, CRK, GRB2, SRC and ABL families (families are indicated with complete Capitalized lettering).
SH2 domains were arrayed as GST fusion proteins and detected using anti-GST primary antibodies and near-infrared labeled secondary antibodies. In an effort to present a dataset with minimal false positives, we chose an empirical cutoff based on the array average across all peptide spots to classify interactions (Figure 1A). In cases where the intensity of the signal for an individual SH2-domain binding event exceeded the mean intensity of all the peptides on the membrane by three-fold were scored as “array positives” [22]. Non-binding was judged in cases where the intensity of a spot was less than the mean intensity of all spots on the membrane and these were scored as “array negatives”. Peptides with signal intensities between 1X and 3X mean were scored as “indeterminate” and ascribed as neither array positive binding interactions nor array-negative non-binders. […] This signature may be indicative of promiscuity differences between phosphopeptides or there may be a subset of peptides which interact in a nonspecific fashion with either the GST fusion tag or one of the antibodies used for detection, resulting in false positives. […]

Row | Substance | SH2 Domains >3X | 2X < SH2 Domains < 3X | Other SH2 domains bound (additional array-positive SH2 domains) (SH2 domains with intensity >3X array mean, GST-SH2 0.25 μM, 1 mM DTT)
1 | HHIDpYYKKTSN [F16] | BCAR3, BMX, BRDG1, FER, PLCG2_N, PTPN11_C, SHF, TENC1 | DAPP1, ITK, MATK, MIST, PI3K1_N, PLCG2_C, PTPN11_N, RIN1, SH3BP2, SHB, SHD, SHIP1 | –
2 | HHIDpYYKKTTN [E13] | BCAR3, BMX, BRDG1, FER, MIST, PLCG2_N, PTPN11_C, SHB, SHF, TENC1 | DAPP1, ITK, MATK, PI3K1_N, PTPN11_N, RIN1, SH3BP2, SHD, SHE, SHIP1, SYK_C | –
3 | HIDYpYKKTTNG [E14] | BCAR3, BMX, BRDG1, CRK, FER, MIST, PTPN11_C, SHF, TENC1 | CRKL, ITK, PLCG2_N, PLCG2_C, PTPN11_N, RIN1, SH3BP2, SHB, SHD, SYK_C, ZAP70_N | –
4 | HKIEpYSRRRDA [G08] | BRDG1, BRK, PLCG2_N, SHF, TENC1 | BCAR3, BMX, ITK, MIST, PLCG2_C, SHB, SYK_C | –
5 | IGSIpYLFLRKR [A17] | BCAR3, BMX, BRDG1, BRK, DAPP1, FER, MATK, MIST, PI3K1_N, PLCG2_N, PTPN11_N, PTPN11_C, RASA1_C, RIN1, Sh2b, SHB, SHF, SHD, TENC1 | FGR, GRB2, PI3K1_C, PLCG2_C, SH3BP2, SHE, SYK_C | –
6 | KEEGpYELPYNP [H21] | ABL1, ABL2, BLK, BRK, FGR, FYN, HCK, ITK, LCK, LYN, NCK1, PI3K1_N, RASA1_N, RASA1_C, RIN1, SH2D1B, SHC1, SHIP1, SRC, VAV1, YES | FER, GRB7 | –
7 | KKPLpYWDLYEH [H17] | ABL1, BCAR3, BMX, CRKL, DAPP1, GRB7, ITK, MATK, PLCG2_N, PLCG2_C, RASA1_N, RASA1_C, SH2D2A, SH3BP2, TENC1 | PI3K1_C, Sh2b | –
8 | LEYCpYNPSHNP [E10] | GRB7 | – | –
9 | LGPLpYASSNPE [A18] | ZAP70_N | – | –
10 | LIALpYTKDEYF [D03] | SH2D2A | ABL1, PLCG2_C | –
11 | LIGIpYRLCLTS [B24] | – | BCAR3, BRDG1, MIST, SHD | –
12 | LPNGpYPRYPSF [F24] | BRDG1, GRAP, GRB2, MIST, PTPN11_C, Sh2b, SHB, SHF | BCAR3, BMX, PLCG2_N, PLCG2_C, SHD, SYK_C, TENC1 | –
13 | LTGVpYRLCLSA [D08] | – | BCAR3, BRDG1, MIST, TENC1 | –
14 | LVALpYTRDEHF [B21] | – | SH2D2A | –
15 | MCKVpYSDPQPH [E02] | CRKL | – | –
16 | MCWQpYNPKMRP [B14] | BCAR3, BMX, BRDG1, FER, MIST, TENC1 | ITK, MATK, PLCG2_N, PLCG2_C, PTPN11_C, SHB, SHF, SHD, SYK_C | –
17 | MDGGpYLDQPDN [B04] | FGR, FYN, LYN, SH2D1B, SHC1, SHIP1, SRC, YES | BLK, HCK, LCK | –
18 | MEYSpYDINRVP [E22] | ABL1 | – | –
19 | NALGpYTVSSFS [G11] | ABL2, CRK, CRKL, GRB7, MATK, SH2D2A | ABL1 | –
20 | NGILpYLEDPVN [G22] | Sh2b, SHB, SHF, SYK_C | – | –
21 | NGLNpYIDLDLV [C22] | BCAR3, ITK, PLCG2_C, PTPN11_N, RASA1_N, Sh2b, SHB, SHF, SHD, SHE, TENC1 | DAPP1, FGR, LCK, LYN, RASA1_C, SYK_C, YES | –
22 | NKLVpYENINGL [G04] | GADS, GRAP, GRB2, GRB7, SH2D2A, SH3BP2 | ABL1 | –
23 | NLREpYLQARRP [E08] | BRDG1, DAPP1, MIST, PLCG2_N, PTPN11_C, Sh2b, SHB, SHF, SHD, SYK_C, TENC1 | BCAR3, BMX, PTPN11_N, SHE | –
24 | NLREpYLRARRP [E20] | BCAR3, BMX, BRDG1, MIST, PLCG2_N, RIN1, SHF, SHD, TENC1 | BRK, DAPP1, FER, PI3K1_N, PLCG2_C, PTPN11_C, Sh2b, SHB | –
25 | NPGFpYVEANPM [H03] | ZAP70_N | PI3K1_C | –

Row | Substance | SH2 Domains >3X | 2X < SH2 Domains < 3X | Other SH2 domains bound (additional array-positive SH2 domains) (SH2 domains with intensity >3X array mean, GST-SH2 0.25 μM, 1 mM DTT)
26 | NPGNpYTARIQA [B08] | BRDG1, MIST, PLCG2_N, PTPN11_C, SHF, SHD, SYK_C | DAPP1, Sh2b, SH3BP2, SHB, SHE | –
27 | NSALpYSQVQKS [H24] | BCAR3, BRDG1, CRK, CRKL, PTPN11_C, SH2D1B, SHC1, SHIP1 | ABL2, BMX, FER, PTPN11_N, RIN1 | –
28 | PCSVpYVPDEWE [A20] | BMX, DAPP1, ITK, PLCG2_N, PLCG2_C, RASA1_N, RASA1_C, SH2D1B, VAV1 | FGR, FYN, MATK, SH2D2A, SHC1 | –
29 | PFEQpYSPGGQD [F12] | – | ZAP70_N | –
30 | PGLDpYSFDTCK [F09] | ABL1, CRK, CRKL, HCK, GRB7, SHIP1, SRC, ZAP70_N | FGR, SHC1 | –
31 | PGLEpYCYNPSH [E09] | ABL1, GRB7, ZAP70_N | – | –
32 | PGMEpYSYDINR [E21] | BRDG1, GRB7 | LCK, RASA1_N | –
33 | PKCTpYENVTGG [G13] | GADS, GRB2, GRB7, SH3BP2 | GRAP, MIST | –
34 | PLSDpYMNLDFS [D24] | GADS, GRAP, GRB2, RASA1_N, SYK_C | ABL1, GRB7, PI3K1_C, PLCG2_N, RASA1_C | –
35 | PMHNpYVNTENV [G07] | GADS, GRAP, GRB2, SH3BP2 | PI3K1_C, VAV1 | –
36 | PNGDpYLNVSPS [D21] | GADS, GRAP, GRB2, GRB7, VAV1 | HCK, PI3K1_N, SH2D1B, SHIP1 | –
37 | PNGHpYILSRGG [C02] | BRDG1, CRK, DAPP1, MIST, PTPN11_C, RASA1_C, SHB, SHF, SHD, SYK_C, TENC1 | BCAR3, BMX, FER, PLCG2_N, Sh2b, SHE | –
38 | PPALpYAEPLDS [11-mer phosphotyrosine peptide, p62DOK1 (Y296)] | – | – | Abl1, Nck1, Vav1, Zap70_N
39 | PPALpYAEPLDS [H15] | ABL1, ITK, NCK1, RASA1_N, RASA1_C, VAV1, ZAP70_N | ABL2 | –
40 | PQDIpYDVPPVR [H11] | CRK, CRKL, NCK1, SHIP1, ZAP70_N | FGR, FYN, LCK, LYN | –
41 | PQGLpYDLPREP [H20] | ABL1, CRK, CRKL, NCK1, ZAP70_N | HCK | –
42 | PRLEpYYESEKK [C24] | – | ZAP70_N | –
43 | PRQSpYVDTSPA [C20] | PI3K1_C | – | –
44 | PSDApYYGPEDP [C10] | DAPP1, PLCG2_N, PLCG2_C | BLK, BMX, LCK, RASA1_N | –
45 | PTYFpYVTDYLD [A15] | BCAR3, BRK, ITK, MATK, PLCG2_N, PLCG2_C, RASA1_N, SH2D2A, SLNK, SYK_C, VAV1 | DAPP1, RIN1, SH2D1B, TENC1 | –
46 | PVAPpYWTSPEK [E01] | – | ABL1 | –
47 | PVFFpYVQAKTG [B09] | BRDG1, MIST, Sh2b, SYK_C | BCAR3, RASA1_C, SHF, TENC1 | –
48 | PVLSpYYSLPRS [C12] | CRK, CRKL, Sh2b, SYK_C | BRDG1, SHF | –
49 | QDSLpYSDPLDS [H16] | ABL1, FYN, HCK, LCK, LYN, NCK1, RASA1_C, SRC, ZAP70_N | BLK, FGR, SHIP1 | –
